Assay results as given in US10208027B2, “Processes for preparing ATR inhibitors” (Vertex Pharmaceuticals Incorporated, priority 2011, dated 2019).

Columns and labels:
full-length ATR = full-length ATR (Homo sapiens (Human), UniProt Q13535); assay: ATR inhibition assay (radioactive-phosphate incorporation); type: biochemical
Description: Compounds can be screened for their ability to inhibit ATR kinase using a radioactive-phosphate incorporation assay. Assays are carried out in a mixture of 50 mM Tris/HCl (pH 7.5), 10 mM MgCl2 and 1 mM DTT. Final substrate concentrations are 10 μM [γ-33P]ATP (3 mCi 33P ATP/mmol ATP, Perkin Elmer) and 800 μM target peptide ([sequence]).
Assays are carried out at 25° C. in the presence of 5 nM full-length ATR. An assay stock buffer solution is prepared containing all of the reagents listed above, with the exception of ATP and the test compound of interest. […] The plate is pre-incubated for 10 minutes at 25° C. and the reaction initiated by addition of 15 μL [γ-33P]ATP (final concentration 10 μM).
The reaction is stopped after 24 hours by the addition of 30 μL 0.1M phosphoric acid containing 2 mM ATP. A multiscreen phosphocellulose filter 96-well plate (Millipore, Cat no. MAPHNOB50) is pretreated with 100 μL 0.2M phosphoric acid prior to the addition of 45 μL of the stopped assay mixture. […]
After removing mean background values for all of the data points, Ki(app) data are calculated from non-linear regression analysis of the initial rate data using the Prism software package (GraphPad Prism version 3.0cx for Macintosh, GraphPad Software, San Diego Calif., USA).

[1] = tested on: HCT116 colorectal cancer cells; assay: Cisplatin sensitization assay, 96 h cell viability (MTS); type: cell-based; conditions: concentration of compound required to reduce the IC50 of Cisplatin alone by at least 3-fold; HCT116, 96 h MTS
Description: Compounds can be screened for their ability to sensitize HCT116 colorectal cancer cells to Cisplatin using a 96 h cell viability (MTS) assay. […] Compounds and Cisplatin are then both added simultaneously to the cell media in 2-fold serial dilutions from a top final concentration of 10 μM as a full matrix of concentrations in a final cell volume of 200 μl, and the cells are then incubated at 37° C. in 5% CO2. After 96 h, 40 μl of MTS reagent (Promega G358a) is added to each well and the cells are incubated for 1 h at 37° C. in 5% CO2.

[2] = tested on: HCT116 colorectal cancer cells; assay: Single agent HCT116 activity, 96 h cell viability (MTS) assay; type: cell-based; conditions: Homo sapiens, HCT-116, 96 h MTS viability, read-out: Single agent HT116 IC50
Description: Compounds can be screened for single agent activity against HCT116 colorectal cancer cells using a 96 h cell viability (MTS) assay. HCT116 are plated at 470 cells per well in 96-well polystyrene plates (Costar 3596) in 150 μl of McCoy's 5A media (Sigma M8403) supplemented with 10% foetal bovine serum (JRH Biosciences 12003), Penicillin/Streptomycin solution diluted 1:100 (Sigma P7539), and 2 mM L-glumtamine (Sigma G7513), and allowed to adhere overnight at 37° C. in 5% CO2. Compounds are then added to the cell media in 2-fold serial dilutions from a top final concentration of 10 μM as a full matrix of concentrations in a final cell volume of 200 μl, and the cells are then incubated at 37° C. in 5% CO2. After 96 h, 40 μl of MTS reagent (Promega G358a) is added to each well and the cells are incubated for 1 h at 37° C. in 5% CO2. Finally, absorbance is measured at 490 nm using a SpectraMax Plus 384 reader (Molecular Devices) and IC50 values can be calculated.

Chain of full-length ATR (Q13535 whole entry): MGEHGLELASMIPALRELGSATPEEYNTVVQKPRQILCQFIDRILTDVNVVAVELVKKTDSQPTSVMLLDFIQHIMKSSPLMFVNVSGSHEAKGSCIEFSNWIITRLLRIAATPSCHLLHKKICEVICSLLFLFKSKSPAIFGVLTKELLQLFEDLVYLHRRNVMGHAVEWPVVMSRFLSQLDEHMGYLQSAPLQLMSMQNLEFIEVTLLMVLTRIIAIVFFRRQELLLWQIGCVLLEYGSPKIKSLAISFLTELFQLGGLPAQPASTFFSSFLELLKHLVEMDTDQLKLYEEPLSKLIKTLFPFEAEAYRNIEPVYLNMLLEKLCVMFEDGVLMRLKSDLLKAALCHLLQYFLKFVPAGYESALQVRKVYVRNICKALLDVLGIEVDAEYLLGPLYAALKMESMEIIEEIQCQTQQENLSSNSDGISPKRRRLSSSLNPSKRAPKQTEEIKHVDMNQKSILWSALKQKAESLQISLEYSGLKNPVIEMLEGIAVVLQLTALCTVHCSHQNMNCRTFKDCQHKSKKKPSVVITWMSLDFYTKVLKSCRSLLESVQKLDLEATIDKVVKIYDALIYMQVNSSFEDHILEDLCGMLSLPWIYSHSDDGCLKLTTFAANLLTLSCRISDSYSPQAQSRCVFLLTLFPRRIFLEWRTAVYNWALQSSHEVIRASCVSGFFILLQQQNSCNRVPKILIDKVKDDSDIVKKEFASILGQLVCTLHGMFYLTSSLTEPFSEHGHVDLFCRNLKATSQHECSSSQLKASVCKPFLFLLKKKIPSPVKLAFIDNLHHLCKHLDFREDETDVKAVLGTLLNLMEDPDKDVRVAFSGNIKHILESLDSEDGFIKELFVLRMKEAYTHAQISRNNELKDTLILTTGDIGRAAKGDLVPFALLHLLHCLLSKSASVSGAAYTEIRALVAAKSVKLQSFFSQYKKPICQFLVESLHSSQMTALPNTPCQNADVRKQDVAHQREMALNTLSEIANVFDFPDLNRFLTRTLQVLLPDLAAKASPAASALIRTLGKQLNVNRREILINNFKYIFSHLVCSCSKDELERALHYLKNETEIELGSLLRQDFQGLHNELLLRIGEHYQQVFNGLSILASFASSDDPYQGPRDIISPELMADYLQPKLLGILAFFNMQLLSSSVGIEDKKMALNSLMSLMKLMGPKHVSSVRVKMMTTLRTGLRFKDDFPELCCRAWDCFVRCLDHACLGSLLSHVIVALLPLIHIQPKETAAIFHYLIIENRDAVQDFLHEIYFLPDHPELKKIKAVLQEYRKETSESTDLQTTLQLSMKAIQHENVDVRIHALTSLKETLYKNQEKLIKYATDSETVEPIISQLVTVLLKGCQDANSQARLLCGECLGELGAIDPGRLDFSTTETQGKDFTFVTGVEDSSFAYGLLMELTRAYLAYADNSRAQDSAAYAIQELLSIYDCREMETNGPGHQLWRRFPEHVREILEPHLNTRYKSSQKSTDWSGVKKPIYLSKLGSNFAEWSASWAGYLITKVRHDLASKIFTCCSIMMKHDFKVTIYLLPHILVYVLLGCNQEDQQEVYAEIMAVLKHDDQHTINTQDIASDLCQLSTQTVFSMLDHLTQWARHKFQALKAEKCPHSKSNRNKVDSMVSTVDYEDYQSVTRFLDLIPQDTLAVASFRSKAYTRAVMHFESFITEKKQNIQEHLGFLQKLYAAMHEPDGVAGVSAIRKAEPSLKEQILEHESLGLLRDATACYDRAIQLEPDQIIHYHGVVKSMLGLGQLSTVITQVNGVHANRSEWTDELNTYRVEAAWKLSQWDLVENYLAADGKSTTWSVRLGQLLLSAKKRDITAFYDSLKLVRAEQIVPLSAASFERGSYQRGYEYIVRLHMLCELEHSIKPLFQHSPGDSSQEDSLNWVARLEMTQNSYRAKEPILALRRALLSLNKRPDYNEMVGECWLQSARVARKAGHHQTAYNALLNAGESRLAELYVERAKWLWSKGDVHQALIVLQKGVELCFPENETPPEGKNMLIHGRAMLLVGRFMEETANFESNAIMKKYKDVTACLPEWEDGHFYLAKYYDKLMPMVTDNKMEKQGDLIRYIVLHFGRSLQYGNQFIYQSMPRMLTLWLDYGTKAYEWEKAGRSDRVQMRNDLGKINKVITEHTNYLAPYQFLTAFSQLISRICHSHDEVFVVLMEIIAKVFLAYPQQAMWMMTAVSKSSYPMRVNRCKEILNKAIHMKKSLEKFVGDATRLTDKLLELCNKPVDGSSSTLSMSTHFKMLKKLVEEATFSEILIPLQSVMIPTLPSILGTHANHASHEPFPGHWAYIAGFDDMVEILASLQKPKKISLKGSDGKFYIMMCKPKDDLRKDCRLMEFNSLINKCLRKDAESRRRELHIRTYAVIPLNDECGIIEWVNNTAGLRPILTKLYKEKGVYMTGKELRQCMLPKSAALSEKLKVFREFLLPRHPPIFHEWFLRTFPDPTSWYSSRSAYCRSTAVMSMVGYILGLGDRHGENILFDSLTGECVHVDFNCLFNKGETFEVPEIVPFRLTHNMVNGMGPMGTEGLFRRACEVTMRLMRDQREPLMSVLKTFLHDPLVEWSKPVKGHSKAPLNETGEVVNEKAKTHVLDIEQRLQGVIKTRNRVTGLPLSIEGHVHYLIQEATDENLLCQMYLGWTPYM

Row | Molecule | IC50 [2] | Ki (full-length ATR) | Cisplatin sensitization [1]
1 | 5-(4-(tert-butylsulfonyl)phenyl)-3-(3-(4-((methylamino)methyl)phenyl)isoxazol-5-yl)pyrazin-2-amine [Compound I-2] | – | < 1 nM | –
2 | CC(C)(C#N)c1cc(-c2cnc(N)c(-c3cc(-c4ccc(CNC5CCOCC5)cc4)no3)n2)ccn1 [Compound I-1, 2-(4-(5-amino-6-(3-(4-((tetrahydro-2H-pyran-4-ylamino)methyl)phenyl)isoxazol-5-yl)pyrazin-2-yl)pyridin-2-yl)-2-methylpropanenitrile] | – | < 1 nM | –

Second part, led by results:

Row | IC50 [2] | Molecule | Ki (full-length ATR) | Cisplatin sensitization [1]
3 | 62 nM | [2H]C([2H])(NC)c1ccc(-c2cc(-c3nc(-c4ccc(S(=O)(=O)C(C)C)cc4)cnc3N)on2)cc1 [II-1, 3-[3-[4-[dideuterio(methylamino)methyl]phenyl]isoxazol-5-yl]-5-(4-isopropylsulfonylphenyl)pyrazin-2-amine] | – | 39 nM
4 | 46 nM | [2H]C([2H])([2H])NC([2H])([2H])c1ccc(-c2cc(-c3nc(-c4ccc(S(=O)(=O)C(C)C)cc4)cnc3N)on2)cc1 [II-2, 3-[3-[4-[dideuterio-(trideuteriomethylamino)methyl]phenyl]isoxazol-5-yl]-5-(4-isopropylsulfonylphenyl)pyrazin-2-amine] | – | 29 nM
5 | 66 nM | [2H]C([2H])([2H])NCc1ccc(-c2cc(-c3nc(-c4ccc(S(=O)(=O)C(C)C)cc4)cnc3N)on2)cc1 [II-3, 5-(4-isopropylsulfonylphenyl)-3-[3-[4-[(trideuteriomethylamino)methyl]phenyl]isoxazol-5-yl]pyrazin-2-amine] | – | 39 nM
